Entries after “also recorded” stand apart in the source; their conditions may differ.
Key:
[1] = tested on: RPMI 8226; experiment: Inhibition of proliferation of RPMI 8226 cells; type: cell-based, human; conditions: RPMI cells in vitro
Excerpt: The next set of experiments was designed to assess compounds that have low levels of brain penetration for the ability of the test compounds to inhibit cellular proliferation. An exemplary in vitro assay is to screen for the ability of the test compounds to inhibit proliferation of the B-cell neoplastic cell line RPMI 8226 (a plasmacytoma derived from a multiple myeloma patient (Matsuoka, et al., 1967, Proc. Soc. Exp. Biol. Med. 125: 1246-1250). However other cell line can be used such as, U266 (established from an IgE-secreting myeloma patient (Nilsson, et al., 1970, Clin. Exp. Immunol., 7: 477-489) and ARH77 (an EBV transformed plasma cell leukemia (Burk, et al., 1978, Cancer Res. 38: 2508-2513).
FIG. 1 is a graph depicting the effects on the test compounds on RPMI cell viability.

[2] = tested on: MPR1-MDCK; experiment: MPR1-MDCK permeability, potential to cross the blood-brain barrier; type: in vitro ADME; conditions: for % Recovery A-B / Papp A-B: A-B direction; for % Recovery B-A / Papp B-A: B-A direction; for Efflux: efflux ratio; for Brain Penetration Classification: from A-B Papp and efflux ratio
Excerpt: A criterion for selecting an agent for proceeding to clinical trials is whether the compound crosses the blood-brain barrier. […] Fluphenazine (ICI-01175) is used as a control compound that has the potential to cross the blood-brain barrier. Table 1 summarizes the results of the test compounds for their potential to cross the blood-brain barrier.

Row | Compound | ability to inhibit proliferation of RPMI cells ([1]; listed as ICI-847) | % Recovery A-B [2] [%] | Papp A-B [2] [×10⁻⁶ cm/s] | % Recovery B-A [2] [%] | Papp B-A [2] [×10⁻⁶ cm/s] | Efflux [2] | Brain Penetration Classification [2] | ability to inhibit proliferation of RPMI cells [1]
1 | NCCCN1CCC(CCCN2c3ccccc3Sc3ccc(C(F)(F)F)cc32)CC1 [ICI-00847] | able to inhibit; also recorded: active | 9 | 0.56 | 31 | 9.56 | 17 | Low (A-B Papp > 3.0 and Efflux Ratio > 10: Low) | 
2 | CN(C)S(=O)(=O)c1ccc2c(c1)N(CCCN1CCN(CCN)CC1)c1ccccc1S2 [ICI-00715] |  | 85 | 0.08 | 77 | 12.3 | 154 | Low (A-B Papp > 3.0 and Efflux Ratio > 10: Low) | able to inhibit
